Consider three compounds from patent US8895600B2, “Non peptidic 14-3-3 inhibitors and the use thereof” (Università degli Studi di Siena, priority 2010, dated 2014).

The test system of data set [1] is Ba/F3 cells expressing the T315I Bcr-Abl mutation. The data set is described as follows: Clonogenic assay (0.9% methylcellulose), Ba/F3 T315I Bcr-Abl. The conditions noted are these: Ba/F3 p210Bcr-Abl T315I, dose reducing cell clonogenic potential to 50%. Type of data set: cell-based, murine. The text has this: (§1) Parental pro-B murine cell line Ba/F3 and clones expressing the wt and T315I and E255K-mutated Bcr-Abl constructs were kindly donated by Michael W Deininger (Department of Hematology and Clinical Oncology, Health and Science University, Cancer Institute, Portland, Oreg., USA). […] Indirect immuno-magnetic labeling (mini-MACS from Milteny Biotech, Bergish Gladback, Germany) was used to isolate CD34+ hematopoietic progenitors from bone marrow samples of 3 CML patients in blast crisis who developed IM resistance. Patient informed consent to use bone marrow samples for our experimental studies was approved by the Ethical Committee of S. Orsola-Malpighi Hospital (Bologna, Italy). The content of CD34+ cells in each sample was measured by cytofluorimetric analysis of CD34 expression with a FacScan (Becton Dickinson, Franklin Land, PI, USA).
(§2) Briefly, the authors assessed the reduction of colony (aggregates containing >50 cells generated in 0.9% methylcellulose supplemented with 30% FCS) number in Bcr-Abl-expressing Ba/F3 cell lines and CD34+ in presence of BV02 increasing doses after 7 or 14 day incubation, respectively, at 37° C. in fully humidified atmosphere and 5% CO2. Linear and non linear regression analyses were used to calculate BV02 LD50 in Bcr-Ablexpressing Ba/F3 cell lines and CD34+ progenitors from CML patients, respectively.
(§3) PI uptake was measured by mean of a FACScan flow cytometer set at >580 nm and a dedicated software (both from Beckton Dickinson, San Jose, Calif., USA). Caspase-8 activity was detected with a commercial kit (Carboxyfluorescein FLICA Apoptosis Detection kits from Immunochemistry Technologies LLC, Bloomington, Minn., USA) according to manufacturer instructions. […] Apoptosis was quantified as the level of fluorescence emitted from FLICA probes bound to caspases. […] Caspase-8 activity was quantified by mean of a dedicated software (DIVA from Becton Dickinson). Cell response to BV-01 and BV-02 was evaluated in clonogenic assays (0.9% methylcellulose additioned with drug scalar doses) (see Methods above for methodological details).

Data set [2] concerns Ba/F3 Parental cells (lacking Bcr-Abl). As to the kind of experiment: Clonogenic assay (0.9% methylcellulose), parental Ba/F3. Type of data set: cell-based, murine. Particulars: dose reducing cell clonogenic potential to 50%. The text has this:
(§4) Parental pro-B murine cell line Ba/F3 and clones expressing the wt and T315I and E255K-mutated Bcr-Abl constructs were kindly donated by Michael W Deininger (Department of Hematology and Clinical Oncology, Health and Science University, Cancer Institute, Portland, Oreg., USA). They were maintained in RPMI medium (Gibco, Paisley, 9 JPET#172536 UK) supplemented with 10% FCS (Gibco), 1% I-glutamine (Sigma, St. Louis, Miss., USA) and 10% WEHI 3 conditioned medium as source of IL-3 when required. […] The content of CD34+ cells in each sample was measured by cytofluorimetric analysis of CD34 expression with a FacScan (Becton Dickinson, Franklin Land, PI, USA). […] BV02 cytotoxicy was assayed in clonogenic assays, the best in vitro technique to quantify drug impact on cell reproductive integrity.
(§5) Briefly, the authors assessed the reduction of colony (aggregates containing >50 cells generated in 0.9% methylcellulose supplemented with 30% FCS) number in Bcr-Abl-expressing Ba/F3 cell lines and CD34+ in presence of BV02 increasing doses after 7 or 14 day incubation, respectively, at 37° C. in fully humidified atmosphere and 5% CO2. […]
(§6) Cell cycle distribution was performed on 1×10^6 cells fixed overnight in 70% ethanol and treated with 1 μg/μL 11 JPET#172536 PI and RNAse (Sigma) at 37° C. for 30′. […] Apoptosis was quantified as the level of fluorescence emitted from FLICA probes bound to caspases. […]

Data set [3] concerns Ba/F3 cells expressing the Bcr-Abl mutation coding for E255K. As to the kind of experiment: Clonogenic assay (0.9% methylcellulose), Ba/F3 E255K Bcr-Abl. Type of data set: cell-based, murine. The conditions noted are these: Ba/F3 p210Bcr-Abl E255K; dose reducing cell clonogenic potential to 50%.
Description: as §4, §5, §6

The target of another data set is T1, 14-3-3σ (Homo sapiens, UniProt P31947).
T1 sequence (P31947 1-248): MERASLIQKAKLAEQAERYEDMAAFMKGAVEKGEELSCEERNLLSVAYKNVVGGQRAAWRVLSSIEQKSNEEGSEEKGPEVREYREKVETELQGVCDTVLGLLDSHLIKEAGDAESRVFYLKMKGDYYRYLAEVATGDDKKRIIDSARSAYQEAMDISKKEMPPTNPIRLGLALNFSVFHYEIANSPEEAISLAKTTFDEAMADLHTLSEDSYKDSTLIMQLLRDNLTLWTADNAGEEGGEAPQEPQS
The data set is described as follows: Transferred NOE (tr-NOEs) NMR binding experiment. The conditions noted are these: 298K; protein concentration 10 fold less than ligand. The protocol:
The binding ability of BV-01 was analyzed by transferred Nuclear Overhauser Enhancement experiments (tr-NOEs). Experiments were recorded (at 298K on Bruker Avance 600) both on the free ligand and in the presence of protein in concentration 10 fold less than ligand. In the tr-NOEs experiments, only ligands in fast exchange between the bound and the free form are observed. Since the NOE effects are directly related to the size of the molecule in solution, by binding to the protein, the ligands NOE change in intensity and appearance allowing an easy detection of the binding.

Data set [4] deals with Ba/F3 cells expressing the wild type Bcr-Abl. As to the kind of experiment: Clonogenic assay (0.9% methylcellulose), Ba/F3 wt Bcr-Abl. Type of data set: cell-based, murine. The conditions noted are these: Ba/F3 p210Bcr-Abl WT, dose reducing cell clonogenic potential to 50%.
Description: as §1, §2, §3

Data set [5] relates to Ba/F3 cells expressing T315I mutation. As to the kind of experiment: Apoptosis induction, cytofluorimetric Annexin V and PI uptake, T315I. Type of data set: cell-based, murine. The conditions noted are these: IM 1 μM for 24 h, BV02 5 μM for 24 h. Here is the method: as §2, with “respectively. Apoptosis induction and involved signals were assayed in Bcr-Abl-expressing Ba/F3 cell lines after 24 h exposure to 1 μM IM and 5 μM BV02 by means of cytofluorimetric analysis of Annexin V (Hoffmann-La Roche, Basel, SW) and PI (Sigma) uptake, Western blot and IP/immunoblotting analyses, according to published methods (Mancini, 2009).” for “respectively.”

Data set [6] has as its system CD34+ cells from bone marrow of CML patients in blast crisis with T315I mutation. The data set is described as follows: Clonogenic assay on CD34+ progenitors of IM-resistant CML patients. Type of data set: cell-based, human. Particulars: three CML patients in blast crisis.
Description: as §4, with “required. Indirect immuno-magnetic labeling (mini-MACS from Milteny Biotech, Bergish Gladback, Germany) was used to isolate CD34+ hematopoietic progenitors from bone marrow samples of 3 CML patients in blast crisis who developed IM resistance.” for “required.”
as §5

The test system of data set [7] is c-Abl / 14-3-3σ signalling in wt Bcr-Abl-expressing Ba/F3 cells. The data set is described as follows: Western blot and IP/immunoblotting of sub-cellular fractions, wt Bcr-Abl Ba/F3. Type of data set: cell-based, murine. The conditions noted are these: 24 h, 1 μM IM or 5 μM BV02; for interaction between c-Abl and 14-3-3σ: IP/immunoblotting. Here is the method: Nuclear lysates were obtained from naked nuclei recovered from 2×10^7 cells kept in buffer B (10 mM NaCl, 5 mM MgCl2, 10 mM phosphate buffer and 0.1% Tergitol-type detergent NP40 [all from Sigma] supplemente with protease inhibitors) by means of 3 sonication rounds (10′ pulses using a Hight Intensity Ultrasonic Processor/Sonicator from Cole Parmer [Vernon Hills, Ill., USA] equipped with 2 mm tips). Mitochondrial membranes were separated from whole cell lysates by 30′ centrifugation at 14,000 g in 2 mL buffer C (20 mM Hepes pH 7.5, 1.5 mM MgCl2, 10 mM KCl, 1 mM EDTA, 1 mM EGTA, 1 mM dithiothreitol, 0.1% PMS and protease inhibitors in 250 mM sucrose) at 4° C.
Proteins or IP products obtained through overnight incubation with primary antibodies in Buffer D (250 mM NaCl, 15 mM MgCl2 40 mM Hepes, 60 mM glycerophosphate supplemented with protease inhibitors) were resolved in SDSPAGE. Gels were then transferred onto nitrocellulose membranes (Schleicher & Schuel, Dassel, Germany), labelled with primary and secondary antibodies in TBS with 5% BSA (Sigma) and 0.1% Tween20 (Sigma). The antibodies were purchased from Upstate Biotechnology (Lake Placid, N.Y., USA), Cell Signalling (Danvers, Mass., USA) and Santa Cruz Biotechnology (Santa Cruz, Calif., USA). Signals were visualized by the enhanced chemo-luminescence detection system ECL from Pierce (Rockford, Ill., USA). Signal intensities in single blots obtained from three individual experiments were quantified by mean of a dedicated software (Launch VisionWorks LS, Upland, Calif., USA).
(§7) The statistical significance of differences in signal intensities relative to cell treatments was assessed by mean of paired Student's t-test; p<0.05 was kept as limit for statistical significance.
On the technique in general: In western blotting, separated proteins are transferred to a membrane and probed.

For data set [8], the system named is c-Abl / 14-3-3σ signalling in Ba/F3 cells expressing T315I Bcr-Abl mutation. The data set is described as follows: Western blot and IP/immunoblotting of sub-cellular fractions, T315I Bcr-Abl Ba/F3. Type of data set: cell-based, murine. The protocol:
Briefly, the authors assessed the reduction of colony (aggregates containing >50 cells generated in 0.9% methylcellulose supplemented with 30% FCS) number in Bcr-Abl-expressing Ba/F3 cell lines and CD34+ in presence of BV02 increasing doses after 7 or 14 day incubation, respectively, at 37° C. in fully humidified atmosphere and 5% CO2. Linear and non linear regression analyses were used to calculate BV02 LD50 in Bcr-Ablexpressing Ba/F3 cell lines and CD34+ progenitors from CML patients, respectively. […]
Proteins or IP products obtained through overnight incubation with primary antibodies in Buffer D (250 mM NaCl, 15 mM MgCl2 40 mM Hepes, 60 mM glycerophosphate supplemented with protease inhibitors) were resolved in SDSPAGE. […] Signals were visualized by the enhanced chemo-luminescence detection system ECL from Pierce (Rockford, Ill., USA). Signal intensities in single blots obtained from three individual experiments were quantified by mean of a dedicated software (Launch VisionWorks LS, Upland, Calif., USA).
as §7

Data set [9] concerns Ba/F3 cells expressing the wild type Bcr-Abl protein. The data set is described as follows: Apoptosis induction, cytofluorimetric Annexin V and PI uptake, wt Bcr-Abl. Type of data set: cell-based, murine. Particulars: IM 1 μM for 24 h, BV02 5 μM for 24 h.

As for `CCCCCCOC(=O)c1ccc(Nc2c([N+](=O)[O-])cc(C(=O)O)cc2[N+](=O)[O-])cc1` [BV-01], the LD50 in data set [1] is 1.70 µM; in data set [2] it was 1.89 µM; in [3], 1.28 µM; in data set [4], 1.41 µM. Also, on 14-3-3σ, the “tr-NOEs pattern (binding to 14-3-3σ)” value is on record as “weak interaction”.

Regarding `Cc1c(NC(=O)c2cc(C(=O)O)ccc2C(=O)O)c(=O)n(-c2ccccc2)n1C` [BV-02], the LD50 in data set [1] is 1.47 µM; in [1] (listed as BV02), 1.47 ± 0.12 µM; in [2], 1.08 µM; in data set [3], 1.21 µM; in [4], 1.04 µM; in data set [4] (listed as BV02), 1.04 ± 0.09 µM. Also, the “apoptosis induction (impact on survival)” value in [5] and in data set [9] was “statistically significant impact” in each case. Also, in data set [6], the “cytotoxicity in CD34+ cells (survival curves)” value is recorded as “confirmed”. Moreover, the “interaction between c-Abl and 14-3-3σ” value in [7] (cytoplasm) is recorded as “mediates c-Abl release from 14-3-3σ”; in data set [7] (cytoplasm, listed as BV02), “reduction”. Besides, the “c-Abl (145 kDa) level” value in data set [7] (cytoplasm) is given as “reduction”. The “c-Abl interaction with caspase 9” value in data set [7] (cytoplasm) is listed as “increase”. For the same compound, the “c-Abl phosphorylation at Tyr245” value in data set [7] (cytoplasm) is “not affected”. For the same compound, the “caspase 9 (p35) and caspase 8 (p18) activated fragments” value in [7] (cytoplasm) was “increase”. The “levels of 14-3-3σ” value in data set [7] (cytoplasm) is “left steady”. For the same compound, the “phosphorylation of p210 Bcr-Abl at Tyr245” value in data set [7] (cytoplasm) is given as “did not significantly affect”. In addition, the “c-Abl (145 and 60 kDa), caspase 9 (p35), caspase 8 (p18) and t-Bid (p15) at mitochondrial membranes” value in [7] (mitochondrial membranes) is “significantly raised”. Moreover, the “c-Abl (145 and 120 kDa) and p27kip1 in the nuclear compartment” value in data set [7] (nuclear compartment) is “significantly increased”. Moreover, in data set [8] (T315I Ba/F3), the “c-Abl release from 14-3-3σ, relocation and apoptotic events” value is “elecited all above mentioned events”. Moreover, the “Tyr245 phosphorylation of normal and Bcr-rearranged c-Abl” value in [8] (T315I Ba/F3 after exposure to BV02) is recorded as “slight increase”.

Turning to `Cc1ccc(NC(=O)c2ccc(CN3CCN(C)CC3)cc2)cc1Nc1nccc(-c2cccnc2)n1` [Imatinib, reference compound], in [5], the “apoptosis induction (impact on survival)” value is “not on survival of Ba/F3 cells expressing T315I mutation”.
